From ChEMBL document CHEMBL1132414, “New bicyclam-AZT conjugates: design, synthesis, anti-HIV evaluation, and their interaction with CXCR-4 coreceptor” (J Med Chem, 1999)
pEC50: −log10 of the molar value.

Columns and labels:
[1] = test system: Human immunodeficiency virus 1; test: microbe, parasite or virus in culture; settings: Human immunodeficiency virus 1, MT4
Description: Concentration required to inhibit syncytia formation by 50% on HIV-1 infected MT-4 cells

in vitro = settings: human, uninfected MT-4 cells
Description: Concentration required to cause 50% death of uninfected MT-4 cells

physchem = settings: octanol/water
Description: Partition coefficient (logP)

[2] = octanol/water
Description: Partition coefficient (logP)

Row | SMILES | pEC50 [1] | logP (physchem) | logP [2] | CC50 (in vitro)
1 | CC(C)(C)OC(=O)N1CCCN(C(=O)OC(C)(C)C)CCN(C(=O)OC(C)(C)C)CCCN(C(=O)CCCC(=O)N2CCCN(C(=O)OC(C)(C)C)CCN(C(=O)OC(C)(C)C)CCCN(C(=O)OC(C)(C)C)CC2)CC1 | < 4.30 | 6.14 |  | 10 µM
2 | Cc1cn(C2CC(N=[N+]=[N-])C(COC(=O)CCCCN3CCCN(C(=O)c4ccc(C(=O)N5CCCNCCNCCCNCC5)cc4)CCNCCCNCC3)O2)c(=O)[nH]c1=O (stereo not given) | 8.00 | -1.35 |  | 75 µM
3 | Cc1cn(C2CC(N=[N+]=[N-])C(COC(=O)CCCCN3CCCN(C(=O)c4ccc(C(=O)N5CCCN(C(=O)OC(C)(C)C)CCN(C(=O)OC(C)(C)C)CCCN(C(=O)OC(C)(C)C)CC5)cc4)CCN(C(=O)OC(C)(C)C)CCCN(C(=O)OC(C)(C)C)CC3)O2)c(=O)[nH]c1=O (stereo not given) | 7.52 | 2.69 |  | 0.5 µM
4 | Cc1cn(C2CC(N=[N+]=[N-])C(COC(=O)CCCC(=O)N3CCCNCCNCCCNCC3)O2)c(=O)[nH]c1=O (stereo not given) | 8.00 | 0.14 |  | 100 µM
5 | Cc1cn(C2CC(N=[N+]=[N-])C(COC(=O)CCCCN3CCCN(C(=O)CCCC(=O)N4CCCNCCNCCCNCC4)CCNCCCNCC3)O2)c(=O)[nH]c1=O (stereo not given) | 7.30 | 1.81 |  | 75 µM
6 | Cc1cn(C2CC(N=[N+]=[N-])C(COC(=O)CCCCN3CCCNCCNCCCNCC3)O2)c(=O)[nH]c1=O (stereo not given) | 8.00 | -0.21 |  | 30 µM
7 | c1cc(CN2CCCNCCNCCCNCC2)ccc1CN1CCCNCCNCCCNCC1 [PLERIXAFOR] | 5.00 |  | 0.89 | 50 µM

Continued by rising pEC50 [1], values first:

Row | pEC50 [1] | logP (physchem) | logP [2] | SMILES | CC50 (in vitro)
8 | 4.30 | -2.11 |  | O=C(c1ccc(C(=O)N2CCCNCCNCCCNCC2)cc1)N1CCCNCCNCCCNCC1 | 100 µM
9 | 5.00 | 1.05 |  | O=C(CCCC(=O)N1CCCNCCNCCCNCC1)N1CCCNCCNCCCNCC1 | 50 µM
10 | 6.00 | 3.46 |  | CC(C)(C)OC(=O)N1CCCN(C(=O)OC(C)(C)C)CCN(C(=O)c2ccc(C(=O)N3CCCN(C(=O)OC(C)(C)C)CCN(C(=O)OC(C)(C)C)CCCN(C(=O)OC(C)(C)C)CC3)cc2)CCCN(C(=O)OC(C)(C)C)CC1 | 10 µM
11 | 6.30 | 6.47 |  | CC(C)(C)OC(=O)N1CCCN(C(=O)OC(C)(C)C)CCN(C(=O)OC(C)(C)C)CCCN(Cc2ccc(CN3CCCN(C(=O)OC(C)(C)C)CCN(C(=O)OC(C)(C)C)CCCN(C(=O)OC(C)(C)C)CC3)cc2)CC1 | 5 µM
12 | 7.30 | 5.85 |  | Cc1cn(C2CC(N=[N+]=[N-])C(COC(=O)CCCCN3CCCN(C(=O)CCCC(=O)N4CCCN(C(=O)OC(C)(C)C)CCN(C(=O)OC(C)(C)C)CCCN(C(=O)OC(C)(C)C)CC4)CCN(C(=O)OC(C)(C)C)CCCN(C(=O)OC(C)(C)C)CC3)O2)c(=O)[nH]c1=O (stereo not given) | 5 µM
13 | 7.30 | 2.68 |  | Cc1cn(C2CC(N=[N+]=[N-])C(COC(=O)CCCC(=O)N3CCCN(C(=O)OC(C)(C)C)CCN(C(=O)OC(C)(C)C)CCCN(C(=O)OC(C)(C)C)CC3)O2)c(=O)[nH]c1=O (stereo not given) | 50 µM
14 | 8.30 | 5.7 |  | Cc1cn(C2CC(N=[N+]=[N-])C(COC(=O)CCCCN3CCCN(Cc4ccc(CN5CCCN(C(=O)OC(C)(C)C)CCN(C(=O)OC(C)(C)C)CCCN(C(=O)OC(C)(C)C)CC5)cc4)CCN(C(=O)OC(C)(C)C)CCCN(C(=O)OC(C)(C)C)CC3)O2)c(=O)[nH]c1=O (stereo not given) | 5 µM
15 | 8.30 | 1.65 |  | Cc1cn(C2CC(N=[N+]=[N-])C(COC(=O)CCCCN3CCCN(Cc4ccc(CN5CCCNCCNCCCNCC5)cc4)CCNCCCNCC3)O2)c(=O)[nH]c1=O (stereo not given) | 75 µM
